Reference: patent US20230266302A1, “SYNTHESIS AND USE OF N-BENZYL SULFONAMIDES” (THE UNIVERSITY OF TULSA, priority 2020, published 2023)

Tests used:
Test in all cases: ATP level assay (CellTiter-Glo), percent of control
Assay type in all cases: cell-based
[1] = system: BxPC3 (pancreatic cancer); conditions: two hour incubation; for activity at 100 µM: Homo sapiens, BXPC-3, 2 h, compound alone, control DMSO, read-out: POC (percent of control) BxPC3
From the text: (§1) In the present method, the method of using the available assays has been modified to measure the short-term effect of compounds of interest on ATP levels in the cells. […] In the modified method, the control and test cells are initially treated with the metabolic inhibitor for a period of about thirty minutes to about four hours. Typically, the treatment of the cells with the metabolic inhibitor is for one hour prior to adding the compound to be screened for anti-cancer properties. However, simultaneous treatment with the metabolic inhibitor and the compound being screened should provide satisfactory results. […] ATP synthesis in cells occurs over multiple biochemical pathways. These pathways are very responsive to metabolic inhibitors and/or changes in available nutrients. By incorporating a metabolic inhibitor which is known to impact certain pathways, the disclosed method provides for measurement of a compound's direct effects on the remaining metabolic pathways available for ATP synthesis in the cell.
(§2) Following treatment of the control and test cells with the metabolic inhibitor, the method calls for addition of the compound to be screened for anti-cancer properties to the cells. Following addition of the compound of interest, the assay is allowed to continue for about one hour to about four hours or depending on the luminescing agent up to eighteen hours. However, approximately 60 minutes will be sufficient to determine the ATP inhibiting effect of the compound to be screened on the cells. Following completion of the selected time period, the ATP level within the cell is determined. ATP levels can be determined by luminescence according to standard measuring procedures, i.e. the luminescence level of the assay from the living cells treated with the two component composition is compared to the luminescence level of the assay from the living cells without the two component composition, i.e., the control experiment. Thus, the ATP levels are determined without killing the cells during the incubation of the cells in the presence of the compound of interest. As a result, the measured reduction in ATP level corresponds directly to the inhibition of the metabolic pathways uninhibited by the metabolic blocker.
(§3) A wide variety of ATP luminescing detection reagents are available commercially. So long as the reagent produces a luminescence in the presence of ATP, the reagent will be suitable for use in the present method. Suitable reagents include but are not limited to any ATP dependent luciferase such as but not limited to firefly luciferase, other modified luciferase based reagents, i.e. luciferase derivatives. According to the rapid method for determining the anti-cancer activity of a compound, a sample of living cells is distributed across a number of testing wells. Typically, 96-well plates are used; however, the number of wells is not critical to the current method. When using a 96-well plate the number of living cells will commonly be about 20,000. The sample wells contain a cell growth medium to promote cell health and growth and an additive to prevent bacterial contamination of the wells. One common example of the cell growth medium is DMEM with 10% FBS as described above. One example of the additive to prevent bacterial contamination is a solution of penicillin G and streptomycin referred to commonly as Pen-Strep. The Pen-Strep solution typically contains 5000 units of penicillin G and 5000 micrograms of streptomycin. Thus, the rapid determination of anti-cancer compounds can be carried out using the following method. • The desired number of cells are distributed in a 96-well plate containing 100 μL DMEM plus 10% FBS with optional Pen-Strep. • After 24 hours, cells are treated with the compound of interest or a 5% solution of dimethyl sulfoxide (DMSO) in water as a control. • The time period for exposure to the compound of interest and the DMSO control will vary depending on the luminescing detection reagent. […]

H293 (kidney cancer) = conditions: two hour incubation; for activity at 100 µM: 2 h, compound alone, control DMSO, read-out: POC (percent of control) H293
From the text: as §1, §2, §3

HDF (normal cells) = conditions: two hour incubation; for activity at 100 µM: 2 h, compound alone, control DMSO, read-out: POC (percent of control) HDF
From the text: as §1, §2, §3

HeLa (cervical cancer) = conditions: two hour incubation; for activity at 100 µM: Homo sapiens, HeLa, 2 h, compound alone, control DMSO, read-out: POC (percent of control) HeLa
From the text: as §1, §2, §3

[2] = system: MCF10A (non-cancerous breast); conditions: two hour incubation; for activity at 100 µM: Homo sapiens, MCF-10A, 2 h, compound alone, control DMSO, read-out: POC (percent of control) MCF10A
From the text: as §1, §2, §3

MCF7 (breast cancer) = conditions: two hour incubation; for activity at 100 µM: Homo sapiens, MCF7, 2 h, compound alone, control DMSO, read-out: POC (percent of control) MCF7
From the text: as §1, §2, §3

MDA-MB (breast cancer) = conditions: two hour incubation; for activity at 100 µM: 2 h, compound alone, control DMSO, read-out: POC (percent of control) MDA-MB
From the text: as §1, §2, §3

NCI-H196 (lung cancer) = conditions: two hour incubation; for activity at 100 µM: NCI-H196, 2 h, compound alone, control DMSO, read-out: POC (percent of control) NCI-H196
From the text: as §1, §2, §3

PC3 (prostate cancer) = conditions: two hour incubation; for activity at 100 µM: 2 h, compound alone, control DMSO, read-out: POC (percent of control) PC3
From the text: as §1, §2, §3

SkBr3 (breast cancer) = conditions: two hour incubation; for activity at 100 µM: Homo sapiens, SK-BR-3, 2 h, compound alone, control DMSO, read-out: POC (percent of control) SkBr3
From the text: as §1, §2, §3

T47D (breast cancer) = conditions: two hour incubation; for activity at 100 µM: Homo sapiens, T47D, 2 h, compound alone, control DMSO, read-out: POC (percent of control) T47D
From the text: as §1, §2, §3

[3] = compound 100 uM + 2DG (about 10-20 mM)
[4] = compound 100 uM + rotenone (approximately 1.25 μM)

Structure (SMILES) | activity at 100 µM [1] | POC (percent of control) BxPC3 [1, 3] | POC (percent of control) BxPC3 [1, 4] | activity at 100 µM (H293 (kidney cancer)) | POC (percent of control) H293 (H293 (kidney cancer); [3]) | POC (percent of control) H293 (H293 (kidney cancer); [4]) | activity at 100 µM (HDF (normal cells)) | POC (percent of control) HDF (HDF (normal cells); [3]) | POC (percent of control) HDF (HDF (normal cells); [4]) | activity at 100 µM (HeLa (cervical cancer)) | POC (percent of control) HeLa (HeLa (cervical cancer); [3]) | POC (percent of control) HeLa (HeLa (cervical cancer); [4]) | activity at 100 µM [2] | POC (percent of control) MCF10A [2, 3] | POC (percent of control) MCF10A [2, 4] | activity at 100 µM (MCF7 (breast cancer)) | POC (percent of control) MCF7 (MCF7 (breast cancer); [3]) | POC (percent of control) MCF7 (MCF7 (breast cancer); [4]) | activity at 100 µM (MDA-MB (breast cancer)) | POC (percent of control) MDA-MB (MDA-MB (breast cancer); [3]) | other results
Cn1cc(CNS(=O)(=O)c2ccc(Cl)cc2)cn1 [Compound 11, 4-chloro-N-[(1-methyl-1H-pyrazol-4-yl)methyl]benzenesulfonamide] | 99.2% | 83.8% of control | 78% of control | 92.8% | 87.4% of control | 88.3% of control | 77.4% | 101.3% of control | 89.8% of control | 103% | 117.6% of control | 96.4% of control | 95.4% | 95.8% of control | 93.7% of control | 118% | 98.4% of control | 94.6% of control | 95.3% | 82.4% of control | POC (percent of control) MDA-MB (MDA-MB (breast cancer); [4]): 97.9% of control; activity at 100 µM (NCI-H196 (lung cancer)): 95.2%; POC (percent of control) NCI-H196 (NCI-H196 (lung cancer); [3]): 114.7% of control; POC (percent of control) NCI-H196 (NCI-H196 (lung cancer); [4]): 88.9% of control; activity at 100 µM (PC3 (prostate cancer)): 113%; POC (percent of control) PC3 (PC3 (prostate cancer); [3]): 94.6% of control; POC (percent of control) PC3 (PC3 (prostate cancer); [4]): 96.1% of control; activity at 100 µM (SkBr3 (breast cancer)): 101%; POC (percent of control) SkBr3 (SkBr3 (breast cancer); [3]): 99.7% of control; POC (percent of control) SkBr3 (SkBr3 (breast cancer); [4]): 95.3% of control; activity at 100 µM (T47D (breast cancer)): 59.3%; POC (percent of control) T47D (T47D (breast cancer); [3]): 90.4% of control; POC (percent of control) T47D (T47D (breast cancer); [4]): 99.6% of control
COc1ncccc1CNS(=O)(=O)c1ccc(C)cc1 [Compound 12, N-[(2-methoxypyridin-3-yl)methyl]-4-methylbenzenesulfonamide] | 79.8% | 57% of control | 61% of control | 94.4% | 85% of control | 74.9% of control | 77.8% | 90.9% of control | 70.4% of control | 98% | 78.5% of control | 87.6% of control | 98.6% | 88.1% of control | 86.1% of control | 97.3% | 90.8% of control | 92.1% of control | 87.2% | 83.9% of control | POC (percent of control) MDA-MB (MDA-MB (breast cancer); [4]): 105.7% of control; activity at 100 µM (NCI-H196 (lung cancer)): 83.5%; POC (percent of control) NCI-H196 (NCI-H196 (lung cancer); [3]): 117% of control; POC (percent of control) NCI-H196 (NCI-H196 (lung cancer); [4]): 81.8% of control; activity at 100 µM (PC3 (prostate cancer)): 82.1%; POC (percent of control) PC3 (PC3 (prostate cancer); [3]): 89.9% of control; POC (percent of control) PC3 (PC3 (prostate cancer); [4]): 80.3% of control; activity at 100 µM (SkBr3 (breast cancer)): 91.6%; POC (percent of control) SkBr3 (SkBr3 (breast cancer); [3]): 73.5% of control; POC (percent of control) SkBr3 (SkBr3 (breast cancer); [4]): 85.1% of control; activity at 100 µM (T47D (breast cancer)): 59.8%; POC (percent of control) T47D (T47D (breast cancer); [3]): 58.1% of control; POC (percent of control) T47D (T47D (breast cancer); [4]): 95.2% of control
COc1ncccc1CNS(=O)(=O)c1ccccc1 [Compound 13, N-[(2-methoxypyridin-3-yl)methyl]benzenesulfonamide] | 91.2% | 74.1% of control | 55.3% of control | 101% | 69.4% of control | 81.1% of control | 96.5% | 104.2% of control | 98.3% of control | 94.6% | 90.7% of control | 94.1% of control | 94.8% | 96.1% of control | 84% of control | 127% | 89.7% of control | 116.5% of control | 101% | 81.9% of control | POC (percent of control) MDA-MB (MDA-MB (breast cancer); [4]): 103.8% of control; activity at 100 µM (NCI-H196 (lung cancer)): 87.6%; POC (percent of control) NCI-H196 (NCI-H196 (lung cancer); [3]): 127.4% of control; POC (percent of control) NCI-H196 (NCI-H196 (lung cancer); [4]): 99.7% of control; activity at 100 µM (PC3 (prostate cancer)): 82.2%; POC (percent of control) PC3 (PC3 (prostate cancer); [3]): 97.3% of control; POC (percent of control) PC3 (PC3 (prostate cancer); [4]): 101.2% of control; activity at 100 µM (SkBr3 (breast cancer)): 101%; POC (percent of control) SkBr3 (SkBr3 (breast cancer); [3]): 87.2% of control; POC (percent of control) SkBr3 (SkBr3 (breast cancer); [4]): 96.5% of control; activity at 100 µM (T47D (breast cancer)): 84.3%; POC (percent of control) T47D (T47D (breast cancer); [3]): 88.8% of control; POC (percent of control) T47D (T47D (breast cancer); [4]): 90% of control
